Test results as given in paper PMC6365497, “2-aminoimidazoles collapse mycobacterial proton motive force and block the electron transport chain” (Scientific Reports, 2019).
Converted amounts (≈) assume the structure as drawn. “And” between values parts separate entries of the source, which are not always exact repeats. Equal entries are not always repeated. “Also recorded” adds a separate entry of the source. Where two headings read alike, the source gives them in different places.

How the values were obtained:
[1] = system: M. tuberculosis; experiment: microbe, parasite or virus in culture; assay type: cell-based, Mycobacterium tuberculosis
[2] = system: M. tuberculosis; experiment: β-lactam potentiation assay; assay type: cell-based, Mycobacterium tuberculosis; conditions: for Fold potentiation of Carbenicillin / Fold potentiation of Meropenem: M. tuberculosis, compound at 50% of its MIC, MIC of β-lactam / MIC of β-lactam plus drug; for β-lactam potentiation (summary): Table S2 summary
[3] = system: M. smegmatis; experiment: Determination of Δψ collapse by DisC3(5); assay type: cell-based; conditions: for Δψ collapse: Acute (≤ 2 h); for Δψ collapse (summary): Table S2 summary
[4] = system: M. tuberculosis mc^2 6206; assay type: cell-based, Mycobacterium tuberculosis; conditions: for Effect on oxygen consumption rate (OCR): stepwise increasing concentration, media without BSA; for Concentration up to which OCR increased (levelling off): stepwise increments
[5] = system: M. tuberculosis H37Rv mc^2 6206; assay type: cell-based, Mycobacterium tuberculosis; conditions: for NADH/NAD+ ratio: Low (≤ 62.5 µM) 2B8; for NADH/NAD+ ratio (summary): Table S2 summary
[6] = system: M. smegmatis IMVs; experiment: NADH oxidation by IMVs; assay type: biochemical; conditions: for NADH oxidation (summary): Table S2 summary
[7] = system: M. smegmatis IMVs; assay type: biochemical
[8] = system: M. smegmatis IMVs; experiment: ETC activity assay with IMVs (INT reduction); assay type: biochemical; conditions: for ETC activity (summary): Table S2 summary
[9] = system: M. tuberculosis; experiment: Kinetic measurement of alamarBlue reduction; assay type: cell-based, Mycobacterium tuberculosis; conditions: for alamarBlue reduction (summary): Table S2 summary, mycobacteria
[10] = system: M. smegmatis; experiment: MIC against M. smegmatis; assay type: cell-based; conditions: M. smegmatis
[11] = system: M. tuberculosis; design: method as in PMID 28749949; conditions: cited from earlier work
[12] = system: mycobacterial cell membrane; conditions: prolonged incubation (24 h); cited from earlier work
[13] = system: M. tuberculosis; experiment: Quantification of intracellular ATP; conditions: for [ATP]i (summary): Table S2 summary
[14] = system: M. smegmatis; experiment: Kinetic measurement of alamarBlue reduction
[15] = system: M. smegmatis IMVs; experiment: Determination of ΔpH collapse with IMVs (ACMA); conditions: for ΔpH collapse: Acute (≤ 2 h); for ΔpH collapse (summary): Table S2 summary
[16] = High (> 62.5 µM) 2B8, Acute (≤ 2 h)
[17] = Low (≤ 62.5 µM) 2B8, Acute (≤ 2 h)
[18] = Low (≤ 62.5 µM) 2B8, Delayed (> 2 h)

CCCCCCC(CCCCCC)NC(=O)CCCc1cnc(N)[nH]1 [2B8]
MIC [1]: 250 to 500 µM and 250 µM
Fold potentiation of Carbenicillin [2]: 64x
Fold potentiation of Meropenem [2]: 64x
β-lactam potentiation (summary) [2]: S t r o ng ↑
Effect on Δψ (membrane potential), DiSC3(5) fluorescence reversal [3]: rapidly depolarized the membrane potential
Δψ collapse ([3]; High (> 62.5 µM) 2B8): S t r o ng
Δψ collapse ([3]; Low (≤ 62.5 µM) 2B8): S t r o ng
Δψ collapse (summary) [3]: S t r o ng
O2 consumption rate [4, 16]: ↓ to basal
Concentration required to decrease OCR ([4]; M. tuberculosis): ≥ 93 µM
OCR versus basal OCR ([4]; M. tuberculosis, 250 µM 2B8 (highest tested concentration)): no statistical difference
Effect on oxygen consumption rate (OCR) ([4]; M. tuberculosis): OCR increased
Concentration up to which OCR increased (levelling off) ([4]; M. tuberculosis): 62.5 µM
O2 consumption rate (summary) ([4]; Table S2 summary): ↑ t he n ↓
NADH/NAD^+ ratio [5]: significantly increased; also recorded: persisted
NADH/NAD+ ratio ([5]; Acute (≤ 2 h)): N o effect- ↑
NADH/NAD+ ratio ([5]; Delayed (> 2 h)): N o effect- ↑
NADH/NAD+ ratio (summary) [5]: S t r o ng ↑
Effect on NADH oxidation (fluorescence decay 340ex/460em) [6]: significantly inhibited
NADH oxidation [6, 17]: N o effect
Concentration at which NADH oxidation is significantly inhibited ([6]; M. smegmatis IMVs): greater than 62.5 µM
NADH oxidation (summary) [6]: S t r o ng ↓
Restoration of inhibited NADH oxidation by CFZ ([7]; M. smegmatis IMVs treated with 5 mM KCN, 80 µM TRZ or 125 µM 2B8, 42 µM CFZ added): also restored by CFZ
Rescue by CFZ (summary) ([7]; Table S2 summary): Partial
ETC activity (INT reduction at 490 nm) [8]: potently inhibited
ETC activity [8, 17]: N o effect
Concentration with inhibitory effect on the ETC ([8]; M. smegmatis IMVs): ≥ 78 µM
ETC activity (summary) [8]: S t r o ng ↓
alamarBlue reduction [9]: inhibited
alamarBlue reduction [9, 18]: N o effect
alamarBlue reduction ([9]; M. tuberculosis, 2B8 62.5 µM): not
alamarBlue reduction (summary) [9]: S t r o ng ↓
MIC ([10]; +0.5% BSA): 125 to 250 µM
MIC ([10]; No BSA): 62.5 µM (≈ 21.9 µg/mL)
MIC (MIC95) [11]: 250 µM
Concentration causing catastrophic cell membrane disruption [12]: ≥ 125 µM
[ATP]i [13, 16]: N o effect
[ATP]i [13, 17]: N o effect
[ATP]i [13, 18]: N o effect- ↓
[ATP]i (summary) [13]: S t r o ng ↓
alamarBlue reduction [14]: inhibited
Effect on ΔpH, ACMA fluorescence reversal [15]: collapsed the ΔpH
ΔpH collapse ([15]; High (> 62.5 µM) 2B8): S t r o ng
ΔpH collapse ([15]; Low (≤ 62.5 µM) 2B8): Low- Strong
ΔpH collapse (summary) [15]: S t r o ng

COc1nc2ccc(Br)cc2cc1[C@@H](c1ccccc1)[C@@](O)(CCN(C)C)c1cccc2ccccc12 [BDQ, bedaquiline, reference compound]
MIC ([1]; Mycobacterium tuberculosis, M. tuberculosis, read-out: MIC (MIC95)): 0.125 µM (≈ 0.0694 µg/mL)
Fold potentiation of Carbenicillin [2]: 4x
Fold potentiation of Meropenem [2]: 4x
β-lactam potentiation (summary) [2]: Weak ↑
Δψ collapse (summary) [3]: N o effect
Effect on oxygen consumption rate (OCR) ([4]; M. tuberculosis): significantly increased M. tuberculosis OCR
Concentration up to which OCR increased (levelling off) ([4]; M. tuberculosis): 9 µM
NADH/NAD^+ ratio [5]: increased
NADH/NAD+ ratio (summary) [5]: Intermediate ↑
Effect on NADH oxidation (fluorescence decay 340ex/460em) [6]: inhibited
NADH oxidation (summary) [6]: Intermediate ↓
ETC activity (summary) [8]: N o effect
alamarBlue reduction (summary) [9]: N o effect
[ATP]i (summary) [13]: S t r o ng ↓
ΔpH collapse (summary) [15]: Intermediate

CC1(C)S[C@@H]2[C@H](NC(=O)C(C(=O)O)c3ccccc3)C(=O)N2[C@H]1C(=O)O (stereo partly shown) [Carbenicillin]
MIC (MIC95) [11]: 1000 µg/mL
